Reference: US20250171516A1, “PEPTIDE ACIDS AS A GLP1R AGONIST AND ANTIBODY-DRUG CONJUGATES THEREOF” (Regeneron Pharmaceuticals, Inc., priority 2023, published 2025)
Like-named read-outs stand apart in the source and are kept apart here. Starred links: 1 amine or outer side, 2 acyl side, 3 side chain; linkers in the order of their positions; H or OH if unused. Non-standard residues stand in square brackets, D forms with d. Residues, ends and D or L forms follow the SMILES beside them. Groups on a side chain read outwards from the residue. *: point of attachment. X2 = CCc1cc(OCCCCn2cc(COCCOCCOCCOCCOCCOCCOCCOCCN[*:3])nn2)ccc1-c1ccc(C[C@H](N[*:1])C(=O)[*:2])cc1; Bip(2'-Et,4'-O(CH2)4N3) = CCc1cc(OCCCCN=[N+]=[N-])ccc1-c1ccc(C[C@H](N)C(=O)O)cc1; Bip(2'-Et,4'-O(CH2)4NH2) = CCc1cc(OCCCCN)ccc1-c1ccc(C[C@H](N)C(=O)O)cc1; Malonyl(2,2-Me2,histaminyl) = CC(C)(C(=O)NCCc1cnc[nH]1)C(=O)*; Nva(5-(3,5-Me2Ph)) = Cc1cc(C)cc(CCC[C@H](N)C(=O)O)c1; Ala(1H-tetrazol-5-yl) = N[C@@H](Cc1nnn[nH]1)C(=O)O; αMePhe(2-F) = C[C@](N)(Cc1ccccc1F)C(=O)O; γGlu = O=C(O)[C@H](CCC(=O)[*:2])N[*:1]

Molecular target: GLP-1R (Homo sapiens, UniProt P43220)
Sequence (P43220 24-463): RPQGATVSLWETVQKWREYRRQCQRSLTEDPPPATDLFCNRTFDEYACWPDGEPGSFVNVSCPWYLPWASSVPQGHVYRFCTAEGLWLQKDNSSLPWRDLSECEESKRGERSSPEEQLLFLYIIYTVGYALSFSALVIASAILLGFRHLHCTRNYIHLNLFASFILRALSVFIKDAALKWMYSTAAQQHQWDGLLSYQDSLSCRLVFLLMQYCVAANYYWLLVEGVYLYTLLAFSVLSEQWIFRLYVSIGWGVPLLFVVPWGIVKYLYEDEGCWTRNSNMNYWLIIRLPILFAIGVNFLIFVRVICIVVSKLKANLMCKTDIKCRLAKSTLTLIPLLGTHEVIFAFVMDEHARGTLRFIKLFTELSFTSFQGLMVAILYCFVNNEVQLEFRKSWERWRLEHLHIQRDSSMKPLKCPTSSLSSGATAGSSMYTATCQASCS
Test: GLP-1R cAMP assay of peptides (Tables 10, 14, 15)
Format: cell-based
[1] = Table 14, peptide amides, read-out: cAMP EC50
[2] = Table 10, read-out: GLP-1R CAMP EC50

Row | SMILES | EC50 [1] [nM] | GLP-1R CAMP Max (Table 10) [%] | also measured
1 | CCc1cc(OCCCCN=[N+]=[N-])ccc1-c1ccc(C[C@H](NC(=O)[C@H](CC(=O)O)NC(=O)[C@H](CO)NC(=O)[C@@H](NC(=O)[C@](C)(Cc2ccccc2F)NC(=O)[C@@H](NC(=O)CNC(=O)[C@H](Cc2nnn[nH]2)NC(=O)C(C)(C)C(=O)NCCc2cnc[nH]2)[C@@H](C)O)[C@@H](C)O)C(=O)N[C@@H](CCCc2cc(C)cc(C)c2)C(N)=O)cc1 [M2361] ({Malonyl(2,2-Me2,histaminyl)}-[Ala(1H-tetrazol-5-yl)]GT[αMePhe(2-F)]TSD[Bip(2'-Et,4'-O(CH2)4N3)][Nva(5-(3,5-Me2Ph))]-NH2) | 0.497 |  | 
2 | C[C@@H](O)[C@H](NC(=O)CNC(=O)[C@H](Cc1nn[nH]n1)NC(=O)C(C)(C)C(=O)NCCc1cnc[nH]1)C(=O)N[C@@](C)(Cc1ccccc1F)C(=O)N[C@H](C(=O)N[C@@H](CO)C(=O)O)[C@@H](C)O [AA10-AA9-AA8-AA7-AA6-AA5-AA4-OH] ({Malonyl(2,2-Me2,histaminyl)}-[Ala(1H-tetrazol-5-yl)]GT[αMePhe(2-F)]TS-OH) |  | −0.86 | EC50 [2]: > 1000 nM
3 | CCc1cc(OCCCCn2cc(COCCOCCOCCOCCOCCOCCOCCOCCNC(=O)CC[C@H](NC(=O)[C@H](CC(C)C)NC(=O)[C@@H](N)CC(C)C)C(=O)O)nn2)ccc1-c1ccc(C[C@H](NC(=O)[C@H](CC(=O)O)NC(=O)[C@H](CO)NC(=O)[C@@H](NC(=O)[C@](C)(Cc2ccccc2F)NC(=O)[C@@H](NC(=O)CNC(=O)[C@H](Cc2nnn[nH]2)NC(=O)C(C)(C)C(=O)NCCc2cnc[nH]2)[C@@H](C)O)[C@@H](C)O)C(=O)N[C@@H](CCCc2cc(C)cc(C)c2)C(=O)O)cc1 [M6297] ({Malonyl(2,2-Me2,histaminyl)}-[Ala(1H-tetrazol-5-yl)]GT[αMePhe(2-F)]TSD[X2]([γGlu-Leu-Leu])[Nva(5-(3,5-Me2Ph))]-OH) |  | 103.80 | EC50: 13.4 nM
4 | CCc1cc(OCCCCN=[N+]=[N-])ccc1-c1ccc(C[C@H](NC(=O)[C@H](CC(=O)O)NC(=O)[C@H](CO)NC(=O)[C@@H](NC(=O)[C@](C)(Cc2ccccc2F)NC(=O)[C@@H](NC(=O)CNC(=O)[C@H](Cc2nn[nH]n2)NC(=O)C(C)(C)C(=O)NCCc2cnc[nH]2)[C@@H](C)O)[C@@H](C)O)C(=O)O)cc1 [M6320] |  |  | EC50 (Table 15, peptide acids, read-out: cAMP EC50): 51.2 nM

Further lines, with some results ahead:

Row | EC50 [1] [nM] | GLP-1R CAMP Max (Table 10) [%] | SMILES | also measured
5 | 1.19 |  | CCc1cc(OCCCCn2cc(COCCOCCOCCOCCOCCOCCOCCOCCNC(=O)CC[C@H](NC(=O)[C@H](CC(C)C)NC(=O)[C@@H](N)CC(C)C)C(=O)O)nn2)ccc1-c1ccc(C[C@H](NC(=O)[C@H](CC(=O)O)NC(=O)[C@H](CO)NC(=O)[C@@H](NC(=O)[C@](C)(Cc2ccccc2F)NC(=O)[C@@H](NC(=O)CNC(=O)[C@H](Cc2nnn[nH]2)NC(=O)C(C)(C)C(=O)NCCc2cnc[nH]2)[C@@H](C)O)[C@@H](C)O)C(=O)N[C@@H](CCCc2cc(C)cc(C)c2)C(N)=O)cc1 [M6296] ({Malonyl(2,2-Me2,histaminyl)}-[Ala(1H-tetrazol-5-yl)]GT[αMePhe(2-F)]TSD[X2]([γGlu-Leu-Leu])[Nva(5-(3,5-Me2Ph))]-NH2) | 
6 | 0.0502 |  | CCc1cc(OCCCCN)ccc1-c1ccc(C[C@H](NC(=O)[C@H](CC(=O)O)NC(=O)[C@H](CO)NC(=O)[C@@H](NC(=O)[C@](C)(Cc2ccccc2F)NC(=O)[C@@H](NC(=O)CNC(=O)[C@H](Cc2nnn[nH]2)NC(=O)C(C)(C)C(=O)NCCc2cnc[nH]2)[C@@H](C)O)[C@@H](C)O)C(=O)N[C@@H](CCCc2cc(C)cc(C)c2)C(N)=O)cc1 [M2642] ({Malonyl(2,2-Me2,histaminyl)}-[Ala(1H-tetrazol-5-yl)]GT[αMePhe(2-F)]TSD[Bip(2'-Et,4'-O(CH2)4NH2)][Nva(5-(3,5-Me2Ph))]-NH2) | 
7 |  | −1.23 | C[C@@H](O)[C@H](NC(=O)[C@](C)(Cc1ccccc1F)NC(=O)[C@@H](NC(=O)CNC(=O)[C@H](Cc1nn[nH]n1)NC(=O)C(C)(C)C(=O)NCCc1cnc[nH]1)[C@@H](C)O)C(=O)O [AA10-AA9-AA8-AA7-AA6-AA5-OH] ({Malonyl(2,2-Me2,histaminyl)}-[Ala(1H-tetrazol-5-yl)]GT[αMePhe(2-F)]T-OH) | EC50 [2]: > 1000 nM
